Assay results reported in US10266526B2, “Substituted 1,2,3-triazoles as SMYD inhibitors for treating cancer” (EPIZYME, INC., priority 2014, dated 2019).
pIC50: −log10 of the molar value.

Target: SMYD3 (Homo sapiens (Human), UniProt Q9H7B4)
Assay: SMYD3 biochemical assay (SMYD3 enzyme assay on MEKK2 protein substrate, 3H-SAM scintillation proximity assay)
Conditions: read-out: SMYD3 Biochem IC50
Procedure, shortened: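 Native full-length human SMYD3, expressed in E. coli, was preincubated with compound for 30 min at room temperature in 25 mM Tris-Cl pH 8.0, 1 mM TCEP, 0.005% BSG and 0.005% Tween 20. ³H-SAM plus GST-MEKK2 then started the reaction. It was stopped with unlabeled SAM (100 uM final), and methylated MEKK2 was read by SPA.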

Chain of SMYD3 (Q9H7B4 whole entry): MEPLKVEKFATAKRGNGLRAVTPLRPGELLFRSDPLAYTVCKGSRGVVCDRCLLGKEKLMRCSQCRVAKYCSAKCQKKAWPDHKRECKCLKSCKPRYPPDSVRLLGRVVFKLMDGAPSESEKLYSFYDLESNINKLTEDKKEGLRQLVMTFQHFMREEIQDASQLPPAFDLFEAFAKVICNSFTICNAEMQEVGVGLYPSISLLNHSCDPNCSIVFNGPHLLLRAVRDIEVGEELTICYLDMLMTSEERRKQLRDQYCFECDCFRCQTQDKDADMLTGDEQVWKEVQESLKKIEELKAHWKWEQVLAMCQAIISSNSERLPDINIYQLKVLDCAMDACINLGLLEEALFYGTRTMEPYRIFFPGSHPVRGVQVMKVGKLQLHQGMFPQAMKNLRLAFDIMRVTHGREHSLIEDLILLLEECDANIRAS

Compound | pIC50
NCCC(=O)N[C@H]1CC[C@H](NC(=O)c2ccc(N)cn2)CC1 [compound 437, 5-amino-N-((1r,4r)-4-(3-aminopropanamido)cyclohexyl)picolinamide] | < 4.00
Nc1ccc(C(=O)N[C@H]2CC[C@H](N)CC2)nc1 [compound 438, 5-amino-N-((1r,4r)-4-aminocyclohexyl)picolinamide] | < 4.00
NCCC(=O)N[C@H]1CC[C@H](NC(=O)c2ccc(Cl)cc2C(F)(F)F)CC1 [compound 439, N-((1r,4r)-4-(3-aminopropanamido)cyclohexyl)-4-chloro-2-(trifluoromethyl)benzamide] | < 4.00
NCCC(=O)N[C@H]1CC[C@H](NC(=O)c2cccc3c2OC(F)(F)O3)CC1 [compound 440, N-((1r,4r)-4-(3-aminopropanamido)cyclohexyl)-2,2-difluorobenzo[d][1,3]dioxole-4-carboxamide] | < 4.00
NCCC(=O)N[C@H]1CC[C@H](NC(=O)c2cncs2)CC1 [compound 442, N-((1r,4r)-4-(3-aminopropanamido)cyclohexyl)thiazole-5-carboxamide] | < 4.00
NCCC(=O)N[C@H]1CC[C@H](NC(=O)Cc2cc(F)cc(F)c2)CC1 [compound 443, 3-amino-N-((1r,4r)-4-(2-(3,5-difluorophenyl)acetamido)cyclohexyl)propanamide] | < 4.00
CC(=O)Nc1ccc(C(=O)N[C@H]2CC[C@H](N)CC2)nc1 [compound 444, 5-acetamido-N-((1r,4r)-4-aminocyclohexyl)picolinamide] | < 4.00
CC(NC(=O)c1cn2ncccc2n1)C1CCN(C(=O)[C@H](C)N)CC1 (stereo partly drawn) [compound 445, N-(1-(1-(L-alanyl)piperidin-4-yl)ethyl)imidazo[1,2-b]pyridazine-2-carboxamide] | < 4.00
NCCC(=O)N[C@H]1CC[C@H](NC(=O)c2cn3ncccc3n2)CC1 [compound 446, N-((1r,4r)-4-(3-aminopropanamido)cyclohexyl)imidazo[1,2-b]pyridazine-2-carboxamide] | < 4.00
N[C@H]1CC[C@H](NC(=O)c2cn3ncccc3n2)CC1 [compound 447, N-((1r,4r)-4-aminocyclohexyl)imidazo[1,2-b]pyridazine-2-carboxamide] | < 4.00
N[C@H]1CC[C@H](NC(=O)Cc2ccc3c(c2)CC(=O)N3)CC1 [compound 448, N-((1r,4r)-4-aminocyclohexyl)-2-(2-oxoindolin-5-yl)acetamide] | < 4.00
NCCC(=O)N[C@H]1CC[C@H](NS(=O)(=O)c2ccc3c(c2)CC(=O)N3)CC1 [compound 449, 3-amino-N-((1r,4r)-4-((2-oxoindoline)-5-sulfonamido)cyclohexyl)propanamide] | < 4.00
Cc1nn(C(C)C(=O)N[C@H]2CC[C@H](N)CC2)c(C)c1Br (some centres unmarked) [compound 454, N-((1r,4r)-4-aminocyclohexyl)-2-(4-bromo-3,5-dimethyl-1H-pyrazol-1-yl)propanamide] | < 4.00
N[C@H]1CC[C@H](NC(=O)c2ccc(-n3cncn3)cc2)CC1 [compound 455, N-((1r,4r)-4-aminocyclohexyl)-4-(1H-1,2,4-triazol-1-yl)benzamide] | < 4.00
N[C@H]1CC[C@H](NC(=O)Cc2cccc(C(F)(F)F)c2)CC1 [compound 457, N-((1r,4r)-4-aminocyclohexyl)-2-(3-(trifluoromethyl)phenyl)acetamide] | < 4.00
Cc1nc2ccccc2c(C(=O)N[C@H]2CC[C@H](N)CC2)c1N [compound 458, 3-amino-N-((1r,4r)-4-aminocyclohexyl)-2-methylquinoline-4-carboxamide] | < 4.00
NC1CCC(NC(=O)[C@H]2Cc3ccccc3CN2)CC1 (stereo partly drawn) [compound 459, (3R)-N-(4-aminocyclohexyl)-1,2,3,4-tetrahydroisoquinoline-3-carboxamide] | < 4.00
O=C1CC2CN(C(=O)CC3CCNCC3)CCC2N1 (centres unmarked) [compound 461, 5-(2-(piperidin-4-yl)acetyl)octahydro-2H-pyrrolo[3,2-c]pyridin-2-one] | < 4.00
CC(=O)Nc1ccc(C(=O)NC(C)C2CCN(C(=O)[C@H](C)N)CC2)nc1 (stereo partly drawn) [compound 462, N-(1-(1-(L-alanyl)piperidin-4-yl)ethyl)-5-acetamidopicolinamide] | < 4.00
CC(=O)Nc1ccc(C(=O)N[C@H]2CC[C@H](NC(=O)CCN)CC2)nc1 [compound 463, 5-acetamido-N-((1r,4r)-4-(3-aminopropanamido)cyclohexyl)picolinamide] | < 4.00

The next lines start with the values.

pIC50 | Compound
< 4.00 | N[C@H]1CC[C@H](NC(=O)[C@H]2C[C@H](O)CN2)CC1 [compound 435, (2R,4S)-N-((1r,4r)-4-aminocyclohexyl)-4-hydroxypyrrolidine-2-carboxamide]
4.90 | N[C@H]1CC[C@H](NC(=O)[C@H]2CCc3ccccc3N2)CC1 [compound 436, (R)-N-((1r,4r)-4-aminocyclohexyl)-1,2,3,4-tetrahydroquinoline-2-carboxamide]
4.43 | CC(NC(=O)c1cc2cccc(O)c2cc1O)C1CCN(C(=O)[C@H](C)N)CC1 (stereo partly drawn) [compound 441, N-(1-(1-(L-alanyl)piperidin-4-yl)ethyl)-3,5-dihydroxy-2-naphthamide]
4.60 | CC1Oc2ccc(C(=O)NC(C)C3CCN(C(=O)[C@H](C)N)CC3)cc2NC1=O (stereo partly drawn) [compound 450, N-(1-(1-(L-alanyl)piperidin-4-yl)ethyl)-2-methyl-3-oxo-3,4-dihydro-2H-benzo[b][1,4]oxazine-6-carboxamide]
5.00 | CC1Oc2ccc(C(=O)N[C@H]3CC[C@H](NC(=O)CCN)CC3)cc2NC1=O (some centres unmarked) [compound 451, N-((1r,4r)-4-(3-aminopropanamido)cyclohexyl)-2-methyl-3-oxo-3,4-dihydro-2H-benzo[b][1,4]oxazine-6-carboxamide]
4.41 | CC1Oc2ccc(C(=O)N[C@H]3CC[C@H](N)CC3)cc2NC1=O (some centres unmarked) [compound 452, N-((1r,4r)-4-aminocyclohexyl)-2-methyl-3-oxo-3,4-dihydro-2H-benzo[b][1,4]oxazine-6-carboxamide]
4.66 | NCCC(=O)N[C@H]1CC[C@H](NC(=O)c2cc3ccccc3nc2O)CC1 [compound 456, N-((1r,4r)-4-(3-aminopropanamido)cyclohexyl)-2-hydroxyquinoline-3-carboxamide]
4.68 | N[C@H]1CC[C@H](NC(=O)c2cc3cccc(O)c3cc2O)CC1 [compound 460, N-((1r,4r)-4-aminocyclohexyl)-3,5-dihydroxy-2-naphthamide]
4.49 | CC(NC(=O)c1noc(C2CC2)n1)C1CCN(C(=O)[C@H](C)N)CC1 (stereo partly drawn) [compound 464, N-(1-(1-(L-alanyl)piperidin-4-yl)ethyl)-5-cyclopropyl-1,2,4-oxadiazole-3-carboxamide]
4.41 | NCCC(=O)N[C@H]1CC[C@H](NC(=O)Cc2ccc3c(c2)CC(=O)N3)CC1 [compound 465, 3-amino-N-((1r,4r)-4-(2-(2-oxoindolin-5-yl)acetamido)cyclohexyl)propanamide]
4.22 | CC(NC(=O)Cc1ccc2c(c1)CC(=O)N2)C1CCN(C(=O)[C@H](C)N)CC1 (stereo partly drawn) [compound 466, N-(1-(1-(L-alanyl)piperidin-4-yl)ethyl)-2-(2-oxoindolin-5-yl)acetamide]
5.35 | NCCC(=O)N[C@H]1CC[C@H](C(=O)Nc2ccc3c(c2)CC(=O)N3)CC1 [compound 467, (1r,4r)-4-(3-aminopropanamido)-N-(2-oxoindolin-5-yl)cyclohexane-1-carboxamide]
